Source: patent US9447081B2, “Substituted pyrimidines as pharmaceuticals and insecticides” (SHENYANG SINOCHEM AGROCHEMICALS R&D CO., LTD., priority 2012, dated 2016)

Columns and labels:
rice blast = experiment: microbe, parasite or virus in culture; assay type: cell-based; settings: for inhibition at 25 µg/mL: Pyricularia oryzae, 24 h, read-out: inhibition rate against rice blast; for inhibition rate against rice blast: in vitro, 24 hours
cucumber downy mildew = experiment: Protectant activity in vivo (whole plant), cucumber downy mildew; settings: for pest or weed control at 25 µg/mL / pest or weed control at 50 µg/mL / pest or weed control at 100 µg/mL / pest or weed control at 400 µg/mL: Cucumis sativus, 168 h, read-out: protectant activity against cucumber downy mildew
Method: (§1) The method is as followed: The whole plant is used in this test. The compound is dissolved in a proper solvent to get mother solution. The proper solvent is selected from acetone, methanol, DMF and so on according to their dissolving capability to the sample. […] The testing solution is sprayed to the host plant by a special plant sprayer. The plant is inoculated with fungus after 24 hours. According to the infecting characteristic of fungus, the plant is stored in a humidity chamber and then transferred into greenhouse after infection is finished. And the other plants are placed in greenhouse directly. The activity of compound is obtained by eyeballing after 7 days in common.

corn rust = experiment: Protectant activity in vivo (whole plant), corn rust; settings: for pest or weed control at 25 µg/mL / pest or weed control at 100 µg/mL / pest or weed control at 400 µg/mL / pest or weed control at 6.25 µg/mL: Zea mays, 168 h, read-out: protectant activity against corn rust; for pest or weed control at 6.25 µg/mL: 6.25 mg/L
Method: as §1

wheat powdery mildew = experiment: Protectant activity in vivo (whole plant), wheat powdery mildew
Method: as §1

armyworm = experiment: Insecticidal activity against armyworm (airbrush spray); assay type: in vivo; settings: second instar larvae, mortality after 72 h
Method: (§2) Compounds were dissolved in mixed solvent (acetone:methanol=1:1), and diluted to required concentration with water containing 0.1% of tween 80.
(§3) Diamond back moth, armyworm, Green Peach Aphid and carmine spider mite were used as targets and the method of spraying by airbrush was used for determination of insecticidal biassays.
(§4) The method of spraying by airbrush: The corn leaves were made into plates of 2 cm diameter by use of punch. A test solution (0.5 ml) was sprayed by airbrush at the pressure of 0.7 kg/cm^2 to both sides of every plate. 10 Second instar larvae were put into the petri-dishes after the leaf disc air-dried and 3 replicates were set for each treatment. Then the insects were maintained in observation room (25° C., 60˜70% R.H.). Scores were conducted and mortalities were calculated after 72 h.

carmine spider mite = experiment: Acaricidal activity against carmine spider mite (airbrush spray); assay type: in vivo; settings: 100 mg/L, adults, mortality after 72 hrs; for pest or weed control at 100 µg/mL: Tetranychus cinnabarinus
Method: as §2, §3
Method: Broadbean shoots with two true leaves in pot were taken, the healthy adults of carmine spider mite were inoculated to the leaves. The adults were counted and then sprayed with airbrush at the pressure of 0.7 kg/cm^2 and at dose of 0.5 ml. 3 replicates were set for each treatment. And then they were maintained in standard observation room. Scores were conducted and mortalities were calculated after 72 hrs.

[1] = test system: Green peach aphids (Myzus Persicae Sulzer); experiment: Activity against green peach aphid (airbrush foliar spray); assay type: in vivo; settings: death rate after 48 h; for pest or weed control at 10 µg/mL / pest or weed control at 100 µg/mL / pest or weed control at 600 µg/mL: Myzus persicae, foliar, 48 h; for pest or weed control at 10 µg/mL: read-out: Insecticidal activity against peach aphid; for pest or weed control at 100 µg/mL / pest or weed control at 600 µg/mL: read-out: Insecticidal activity against peach aphid (control)
Method: as §2, §3
Method: Filter papers were put in culture dishes (Diameter=6 cm), and water was dripped on filter papers for preserving moisture. Green peach aphids (Myzus Persicae Sulzer) were maintained on cabbage. Leaves (Diameter=3 cm) of approximately 15-30 aphids were put in the culture dishes. Bioactivity tests were used the method of Airbrush Foliar Spray, pressure=10 psi (0.7 kg/cm2), spray volume=0.5 mL. The studies were conducted at three constant temperatures 25±1 C. in incubator cabinets with 60±5% RH. Survey the survival aphids after 48 h and calculate the death rates.

diamond back moth = experiment: Insecticidal activity against diamond back moth (airbrush spray); assay type: in vivo; settings: mortality after 72 h; for pest or weed control at 100 µg/mL: 100 mg/L; for pest or weed control at 100 µg/mL / pest or weed control at 600 µg/mL: read-out: control of the second instar larvae of diamond back moth
Method: as §2, §3
as §4, with “cabbage” for “corn”

cucumber gray mold = experiment: Fungicidal activity in vitro (96-well, High Through Put), cucumber gray mold; assay type: cell-based; settings: 25 mg/L, 24 hours, read-out: inhibition rate against cucumber gray mold
[2] = Triticum aestivum, 168 h, 400 mg/L, read-out: protectant activity against wheat powdery mildew
[3] = Triticum aestivum, 168 h, 25 mg/L, read-out: protectant activity against wheat powdery mildew
[4] = Triticum aestivum, 168 h, 100 mg/L, read-out: protectant activity against wheat powdery mildew

Row | SMILES | inhibition at 25 µg/mL (rice blast) [%] | pest or weed control at 100 µg/mL (cucumber downy mildew; 100 mg/L) [%] | pest or weed control at 400 µg/mL (cucumber downy mildew; 400 mg/L) [%] | pest or weed control at 100 µg/mL (corn rust; 100 mg/L) [%] | pest or weed control at 400 µg/mL (corn rust; 400 mg/L) [%] | pest or weed control at 400 µg/mL (wheat powdery mildew; [2]) [%] | pest or weed control at 600 µg/mL (armyworm; 600 mg/L) [%] | pest or weed control at 100 µg/mL (carmine spider mite) [%] | pest or weed control at 10 µg/mL ([1]; 10 mg/L) [%] | pest or weed control at 100 µg/mL ([1]; 100 mg/L) [%] | pest or weed control at 600 µg/mL ([1]; 600 mg/L) [%] | pest or weed control at 25 µg/mL (wheat powdery mildew; [3]) [%] | pest or weed control at 100 µg/mL (wheat powdery mildew; [4]) [%] | pest or weed control at 600 µg/mL (diamond back moth; 600 mg/L) [%] | protectant activity against cucumber downy mildew (cucumber downy mildew; 25 mg/L) [%] | protectant activity against cucumber downy mildew (cucumber downy mildew; 50 mg/L) [%] | protectant activity against cucumber downy mildew (cucumber downy mildew; 100 mg/L) [%] | protectant activity against cucumber downy mildew (cucumber downy mildew; 400 mg/L) [%] | other results
1 | CCc1ncnc(NCc2ccc3c(c2)OCO3)c1Cl [CK1] | 0 | 30 | 100 | 20 | 70 | 0 | 0 | 39 | 0 | 30 | 70 | – | – | – | – | – | – | – | pest or weed control at 25 µg/mL (cucumber downy mildew; 25 mg/L): 0%; pest or weed control at 50 µg/mL (cucumber downy mildew; 50 mg/L): 20%; pest or weed control at 25 µg/mL (corn rust; 25 mg/L): 0%
2 | Cc1ncnc(NCc2ccc3c(c2)OCO3)c1Cl [CK2] | 0 | 60 | 100 | 0 | 75 | 60 | 14 | 0 | 0 | 12 | 20 | 40 | 60 | 20 | – | – | – | – | pest or weed control at 25 µg/mL (cucumber downy mildew; 25 mg/L): 0%; pest or weed control at 50 µg/mL (cucumber downy mildew; 50 mg/L): 40%; pest or weed control at 6.25 µg/mL (wheat powdery mildew; Triticum aestivum, 168 h, 6.25 mg/L, read-out: protectant activity against wheat powdery mildew): 0%; pest or weed control at 100 µg/mL (diamond back moth): 5%; pest or weed control at 100 µg/mL (armyworm; 100 mg/L): 0%
3 | COc1ccc(CCNc2ncnc(C(F)F)c2Cl)cc1OC [CK5] | 0 | – | – | – | – | 100 | 0 | 0 | 8 | 35 | 100 | 0 | 20 | 40 | – | – | – | – | pest or weed control at 100 µg/mL (diamond back moth): 20%
4 | COc1ccc(CNc2ncnc(C(F)F)c2Cl)cc1OC [CK6] | 0 | 0 | 80 | – | – | 85 | 0 | 0 | – | – | 0 | 0 | 25 | – | – | – | – | – | pest or weed control at 100 µg/mL (diamond back moth): 0%
5 | COc1ccc(CCNc2ncnc(C(F)(F)F)c2Cl)cc1OC [CK7] | 0 | – | – | 0 | 70 | 80 | 0 | – | 0 | 37 | 66 | 0 | 30 | – | – | – | – | – | inhibition at 25 µg/mL (cucumber gray mold): 0%
6 | FC(F)c1ncnc(NCc2ccc3c(c2)OCO3)c1Cl [CK9] | 0 | 0 | 50 | 25 | 80 | 70 | 0 | 0 | – | – | – | 0 | 10 | 0 | – | – | – | – | pest or weed control at 6.25 µg/mL (corn rust): 0%; pest or weed control at 25 µg/mL (corn rust; 25 mg/L): 0%
7 | ClCc1ncnc(NCc2ccc3c(c2)OCO3)c1Cl [CK12] | – | 0 | 50 | 0 | 40 | 0 | 0 | 0 | 0 | 0 | 10 | – | – | 0 | – | – | – | – | –
8 | Clc1ncnc(NCCc2ccc3c(c2)OCO3)c1Cl [Compound 2] | – | – | – | – | – | – | – | – | – | – | – | – | – | – | 100 | 100 | 100 | 100 | inhibition rate against rice blast (rice blast; 2.8 mg/L): 80%; inhibition rate against rice blast (rice blast; 8.3 mg/L): 100%; inhibition rate against rice blast (rice blast; 25 mg/L): 100%; protectant activity against wheat powdery mildew (wheat powdery mildew; 400 mg/L): 100%
9 | FC(F)c1ncnc(NCCc2ccc3c(c2)OCO3)c1Cl [Compound 18] | – | – | – | – | – | – | – | – | – | – | – | – | – | – | 100 | 100 | 100 | 100 | inhibition rate against rice blast (rice blast; 0.9 mg/L): 80%; inhibition rate against rice blast (rice blast; 2.8 mg/L): 80%; inhibition rate against rice blast (rice blast; 8.3 mg/L): 100%; inhibition rate against rice blast (rice blast; 25 mg/L): 100%; protectant activity against cucumber downy mildew (cucumber downy mildew; 12.5 mg/L): 80%; protectant activity against corn rust (corn rust; 25 mg/L): 98%; protectant activity against corn rust (corn rust; 100 mg/L): 100%; protectant activity against corn rust (corn rust; 400 mg/L): 100%; protectant activity against wheat powdery mildew (wheat powdery mildew; 6.25 mg/L): 100%; protectant activity against wheat powdery mildew (wheat powdery mildew; 25 mg/L): 100%; protectant activity against wheat powdery mildew (wheat powdery mildew; 100 mg/L): 100%; protectant activity against wheat powdery mildew (wheat powdery mildew; 400 mg/L): 100%; control of the second instar larvae of diamond back moth (diamond back moth; 600 mg/L): 100%; control of the armyworm (armyworm; 600 mg/L): 100%; control against carmine spider mite (carmine spider mite): 90%; Insecticidal activity against peach aphid ([1]; 10 mg/L): 68%; Insecticidal activity against peach aphid (control) ([1]; 100 mg/L): 100%; Insecticidal activity against peach aphid (control) ([1]; 600 mg/L): 100%
10 | FC(F)(F)c1ncnc(NCCc2ccc3c(c2)OCO3)c1Cl [Compound 20] | – | – | – | – | – | – | – | – | – | – | – | – | – | – | 20 | 100 | 100 | 100 | –
11 | Cc1ncnc(NCCc2ccc3c(c2)OCO3)c1Cl [Compound 1451] | – | 0 | 100 | – | 80 | – | – | – | – | – | 100 | – | – | – | – | – | – | – | pest or weed control at 25 µg/mL (cucumber downy mildew; 25 mg/L): 0%; pest or weed control at 50 µg/mL (cucumber downy mildew; 50 mg/L): 0%
12 | Cc1ncnc(NCCc2ccc3c(c2)OCO3)c1Cl [Compound 1452] | – | – | – | – | – | – | – | – | – | – | – | – | – | 80 | 0 | 0 | 0 | 95 | Insecticidal activity against peach aphid (control) ([1]; 600 mg/L): 90%
13 | CCc1ncnc(NCCc2ccc3c(c2)OCO3)c1Cl [Compound 1465] | – | – | – | 95 | 100 | – | – | – | 0 | 70 | 100 | – | – | 100 | – | – | – | – | pest or weed control at 6.25 µg/mL (corn rust): 0%; pest or weed control at 25 µg/mL (corn rust; 25 mg/L): 50%
